The record followed here is patent US20220409617A1, “Drug Formulations and Methods of Treatment for Metabolic Disorders” (The Regents of the University of California, priority 2019, published 2022).

Test [1] relates to mouse embryonic fibroblasts. In words: Basal 2-deoxyglucose uptake in fibroblasts. It is filed as cell-based. The following applies: 3 h, 893 5 or 10 μM. As to the method: Glucose uptake assays were performed using the Glucose-Glo™ uptake Kit according to manufacturer's instructions (cat # J1342, Promega, Madison, Wis.). For basal glucose uptake in MEFs, cells were plated the night before in 96-well black, clear-bottom plates. Cells were treated for 3 h, washed once in PBS, then pulsed with 1 mM 2-DG in glucose-free media containing their respective drug treatments. After 10 min, the reaction was quenched and developed according to manufacturer's protocol. To assay insulin-stimulated glucose uptake, mature adipocytes in 96-well black clear-bottom plates were serum starved for 16 h. Cells were treated in serum-free media supplemented with 0.2% fatty-acid free BSA for 3 h. Cells were washed once in PBS and incubated in glucose-free media with their respective drug treatments, with or without 100 nM bovine insulin, for 15 min. A concentrated 2-DG stock was added directly to wells for 10 min (1 mM final concentration), then the reaction stopped and developed according to manufacturer's protocol.

Test [2] relates to leptin. In words: Serum leptin ELISA in HFD-fed mice. The class given is in vivo, mouse. On the procedure:
Further assessment was performed to determine the level of leptin circulating in HFD-fed mice treated with sphingolipid-like compound 893. Mice were fed a HFD for 4 weeks and randomly distributed into two groups with the same mean weight. Mice were gavaged with water (n=7) or 120 mg/kg 893 (n=8) at ZT8.5. Blood was collected from the saphenous vein between ZT15-18 in pairs of treated vs. untreated animals and leptin levels were measured in serum using ELISA (CrystalChem, cat #90030).
Background: An ELISA detects its analyte on a solid surface through an enzyme-linked reagent.

Test [3] deals with hepatic lipid accumulation. In words: Hepatic steatosis and lipidomic profiling of liver and quadriceps muscle. It is filed as in vivo, mouse. The conditions noted are these: HFD-fed mice. On the procedure:
Lipids were extracted from liver and quadriceps tissue using a modified MTBE method (Matyash et al, 2008; Abbott et al, 2013). Briefly, 10 mg/ml of tissue was homogenized in ice-cold 150 mM ammonium acetate using a bead homogenizer (1.4 mm ceramic) kept below 4° C. using liquid nitrogen vapor (Precellys 24 homogenizer with Cryolys cooling unit, Bertin Technologies, Montigny-le-Bretonneux, France). From this, 20 μl of homogenized tissues were added to glass vials containing MTBE and methanol (3:1 v/v, with 0.01% BHT), alongside 10 μl of an internal standard solution containing 10 μM each: phosphatidylcholine (PC) 17:0/17:0, phosphatidylethanolamine (PE) 17:0/17:0, phosphatidylserine (PS) 17:0/17:0, phosphatidylglycerol (PG) 17:0/17:0, lysophosphatidylcholine (LPC) 17:0, lysophosphatidylethanolamine (LPE) 14:0, ceramide (Cer) d18:1/17:0, dihydrosphingomyelin d18:0/12:0, diacylglycerol (DAG) 17:0/17:0, D5-triacylglycerol (TAG) 48:0, and cholesteryl ester (CE) 22:1. Samples were allowed to rotate at 4° C. overnight prior to the addition of 1 volume of ice-cold 150 mM ammonium acetate. Samples were vortexed thoroughly prior to centrifugation (2000×g, 5 min) to enable phase separation. […]
Extracted lipids were analyzed by liquid chromatography-mass spectrometry (LC-MS) using a Dionex Ultimate 3000 LC pump and Q Exactive Plus mass spectrometer equipped with a heated electrospray ionization (HESI) source (Thermo Fisher Scientific). […] Data were acquired in full scan/data-dependent MS2 mode (full scan resolution 70,000 FWHM, max ion injection time 50 ms, scan range m/z 200-1500), with the 10 most abundant ions being subjected to collision-induced dissociation using an isolation window of 1.5 Da and a normalized stepped collision energy of 15/27 eV, with product ions detected at a resolution of 17,500. […]
Lipids were analyzed using MS-DIAL (Tsugawa et al, 2015). Lipids were detected in both positive and negative ionization modes using a minimum peak height of 1×10^4 cps, a MS1 tolerance of 5 ppm and MS2 tolerance of 10 ppm, and a minimum identification score of 50%. […]

Regarding `CCCCCCCCc1ccc([C@H]2CCN[C@@H]2CO)cc1.Cl` [compound 893], in test [1], the Constitutive glucose uptake result is given as “constitutive glucose uptake in fibroblasts was reduced”. The “Leptin production by adipocytes” value in test [2] (in vivo) is “reduced leptin production by adipocytes in vivo”. Further, the “Circulating leptin levels (serum)” value in test [2] (mice on HFD 4 weeks, 120 mg/kg at ZT8.5, blood at ZT15-18) is recorded as “lowered levels of circulating leptin”. The Hepatic steatosis result in test [3] (120 mg/kg) is on record as “eliminated hepatic steatosis”. In addition, the “Liver triglyceride and ceramide levels” value in test [3] (treated for 4 weeks) is “restored normal triglyceride and ceramide levels in the liver”. The Muscle ceramide levels result in test [3] (treated for 4 weeks, quadriceps) was “ceramide levels trended lower in muscle”.
